Assay results published in ChEMBL document CHEMBL5465560, “Selectivity Literature for EUbOPEN Chemogenomic Library” (2024).

Experiments:
[1] = molecular target: 5'-AMP-activated protein kinase catalytic subunit alpha-1 (Homo sapiens, UniProt Q13131); experiment: Selectivity interaction (ActivX KiNativ screen (kinase selectivity in THP-1 cell lysates)) EUB0000639a PRKAA1; assay type: subcellular; conditions: lysate, at 0.04 µM
[2] = molecular target: Cyclin-dependent kinase 5 (Homo sapiens, UniProt Q00535); experiment: Selectivity interaction (ActivX KiNativ screen (kinase selectivity in THP-1 cell lysates)) EUB0000639a CDK5; assay type: subcellular; conditions: lysate, at 1 µM
[3] = molecular target: Ribosomal protein S6 kinase alpha-2 (Homo sapiens) (UniProt Q15349); experiment: Selectivity interaction (KinomeScan (DiscoverX)) EUB0000695a RPS6KA2; conditions: at 100 nM
[4] = molecular target: Bromodomain-containing protein 4 (Homo sapiens, UniProt O60885); experiment: Selectivity interaction (Kinase panel (DSF assay)) EUB0001559a BRD4
[5] = molecular target: LIM domain kinase 1 (Homo sapiens) (UniProt P53667); experiment: Selectivity interaction (KinomeScan (DiscoverX)) EUB0000045b LIMK1
[6] = molecular target: Interferon-induced, double-stranded RNA-activated protein kinase (Homo sapiens) (UniProt P19525); experiment: Selectivity interaction (KinomeScan (DiscoverX)) EUB0000045b EIF2AK2
[7] = molecular target: Calcium/calmodulin-dependent protein kinase type 1G (Homo sapiens) (UniProt Q96NX5); experiment: Selectivity interaction (KinomeScan (DiscoverX)) EUB0001079a CAMK1G; conditions: at 1 µM
[8] = molecular target: Death-associated protein kinase 3 (Homo sapiens) (UniProt O43293); experiment: Selectivity interaction (KinomeScan (DiscoverX)) EUB0001079a DAPK3; conditions: at 1 µM
[9] = molecular target: Interferon-induced, double-stranded RNA-activated protein kinase (Homo sapiens) (UniProt P19525); experiment: Selectivity interaction (KinomeScan (DiscoverX)) EUB0001079a EIF2AK2; conditions: at 1 µM
[10] = molecular target: T1, Muscle, skeletal receptor tyrosine-protein kinase (Homo sapiens) (UniProt O15146); experiment: Selectivity interaction (KinomeScan (DiscoverX)) EUB0000229b MUSK; conditions: at 10 µM
T1 sequence (whole entry): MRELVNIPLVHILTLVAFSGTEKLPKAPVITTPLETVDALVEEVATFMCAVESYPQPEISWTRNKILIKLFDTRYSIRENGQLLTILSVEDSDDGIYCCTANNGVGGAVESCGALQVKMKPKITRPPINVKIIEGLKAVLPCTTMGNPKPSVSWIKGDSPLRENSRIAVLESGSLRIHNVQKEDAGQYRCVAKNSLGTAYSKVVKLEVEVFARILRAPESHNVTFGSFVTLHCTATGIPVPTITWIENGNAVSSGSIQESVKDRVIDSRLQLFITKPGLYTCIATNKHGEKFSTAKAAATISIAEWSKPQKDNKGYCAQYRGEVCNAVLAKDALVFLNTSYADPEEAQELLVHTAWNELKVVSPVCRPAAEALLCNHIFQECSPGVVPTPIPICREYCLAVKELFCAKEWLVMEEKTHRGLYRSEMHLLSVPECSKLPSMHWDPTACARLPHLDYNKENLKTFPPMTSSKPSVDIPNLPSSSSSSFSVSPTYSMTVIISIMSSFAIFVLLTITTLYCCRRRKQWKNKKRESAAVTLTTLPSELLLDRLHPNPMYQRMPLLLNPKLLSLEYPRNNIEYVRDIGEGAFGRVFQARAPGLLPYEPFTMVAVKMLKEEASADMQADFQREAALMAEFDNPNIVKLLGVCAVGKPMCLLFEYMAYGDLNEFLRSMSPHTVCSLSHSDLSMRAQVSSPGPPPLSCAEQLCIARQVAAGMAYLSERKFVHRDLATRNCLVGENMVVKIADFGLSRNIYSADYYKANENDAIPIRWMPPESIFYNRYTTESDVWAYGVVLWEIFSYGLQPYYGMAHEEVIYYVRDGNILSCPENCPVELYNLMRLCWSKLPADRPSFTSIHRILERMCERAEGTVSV

[11] = molecular target: Platelet-derived growth factor receptor alpha (Homo sapiens, UniProt P16234); experiment: Selectivity interaction (KinomeScan (DiscoverX)) EUB0000092b PDGFRA; conditions: at 10 µM
[12] = molecular target: T2, Serine/threonine-protein kinase BRSK2 (Homo sapiens) (UniProt Q8IWQ3); experiment: Selectivity interaction (KinomeScan (DiscoverX)) EUB0000092b BRSK2; conditions: at 10 µM
T2 sequence (whole entry): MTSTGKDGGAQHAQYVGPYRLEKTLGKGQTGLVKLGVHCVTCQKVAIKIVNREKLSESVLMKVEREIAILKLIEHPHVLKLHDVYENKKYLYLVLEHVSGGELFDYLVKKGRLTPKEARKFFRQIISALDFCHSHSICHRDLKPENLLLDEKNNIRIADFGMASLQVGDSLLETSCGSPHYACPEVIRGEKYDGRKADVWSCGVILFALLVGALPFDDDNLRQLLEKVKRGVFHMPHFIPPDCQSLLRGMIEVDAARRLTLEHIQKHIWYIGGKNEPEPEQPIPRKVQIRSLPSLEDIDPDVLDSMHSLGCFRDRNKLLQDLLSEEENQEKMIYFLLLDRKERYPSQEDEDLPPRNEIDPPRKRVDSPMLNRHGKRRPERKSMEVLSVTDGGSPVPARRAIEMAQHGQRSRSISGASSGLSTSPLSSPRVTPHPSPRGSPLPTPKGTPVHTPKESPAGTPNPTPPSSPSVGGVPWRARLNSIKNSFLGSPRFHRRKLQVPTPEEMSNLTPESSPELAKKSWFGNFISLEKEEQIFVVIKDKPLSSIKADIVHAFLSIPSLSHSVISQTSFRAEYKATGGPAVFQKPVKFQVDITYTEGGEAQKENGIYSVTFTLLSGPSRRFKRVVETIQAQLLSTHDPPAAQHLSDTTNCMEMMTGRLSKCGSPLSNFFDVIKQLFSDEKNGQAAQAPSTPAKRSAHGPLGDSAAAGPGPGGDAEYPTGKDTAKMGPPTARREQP

[13] = molecular target: Tyrosine-protein kinase CSK (Homo sapiens) (UniProt P41240); experiment: Selectivity interaction (KinomeScan (DiscoverX)) EUB0001619a CSK; conditions: at 1 µM
[14] = molecular target: LIM domain kinase 1 (Homo sapiens) (UniProt P53667); experiment: Selectivity interaction (KinomeScan (DiscoverX)) EUB0001619a LIMK1; conditions: at 1 µM
[15] = molecular target: Tyrosine-protein kinase Yes (Homo sapiens) (UniProt P07947); experiment: Selectivity interaction (KinomeScan (DiscoverX)) EUB0001619a YES1; conditions: at 1 µM
[16] = system: Leucine-rich repeat serine/threonine-protein kinase 2 (Homo sapiens), Q5S007 [G2019S]; conditions: at 1 µM
[17] = molecular target: Phosphatidylinositol 4-kinase beta (Homo sapiens, UniProt Q9UBF8); experiment: Selectivity interaction (ActivX KiNativ screen (ex vivo kinase selectivity in human PBMCs)) EUB0001619a PI4KB; assay type: cell-based; conditions: PBMC, at 1 µM
Chain of Phosphatidylinositol 4-kinase beta (Q9UBF8 2-816 limits assumed): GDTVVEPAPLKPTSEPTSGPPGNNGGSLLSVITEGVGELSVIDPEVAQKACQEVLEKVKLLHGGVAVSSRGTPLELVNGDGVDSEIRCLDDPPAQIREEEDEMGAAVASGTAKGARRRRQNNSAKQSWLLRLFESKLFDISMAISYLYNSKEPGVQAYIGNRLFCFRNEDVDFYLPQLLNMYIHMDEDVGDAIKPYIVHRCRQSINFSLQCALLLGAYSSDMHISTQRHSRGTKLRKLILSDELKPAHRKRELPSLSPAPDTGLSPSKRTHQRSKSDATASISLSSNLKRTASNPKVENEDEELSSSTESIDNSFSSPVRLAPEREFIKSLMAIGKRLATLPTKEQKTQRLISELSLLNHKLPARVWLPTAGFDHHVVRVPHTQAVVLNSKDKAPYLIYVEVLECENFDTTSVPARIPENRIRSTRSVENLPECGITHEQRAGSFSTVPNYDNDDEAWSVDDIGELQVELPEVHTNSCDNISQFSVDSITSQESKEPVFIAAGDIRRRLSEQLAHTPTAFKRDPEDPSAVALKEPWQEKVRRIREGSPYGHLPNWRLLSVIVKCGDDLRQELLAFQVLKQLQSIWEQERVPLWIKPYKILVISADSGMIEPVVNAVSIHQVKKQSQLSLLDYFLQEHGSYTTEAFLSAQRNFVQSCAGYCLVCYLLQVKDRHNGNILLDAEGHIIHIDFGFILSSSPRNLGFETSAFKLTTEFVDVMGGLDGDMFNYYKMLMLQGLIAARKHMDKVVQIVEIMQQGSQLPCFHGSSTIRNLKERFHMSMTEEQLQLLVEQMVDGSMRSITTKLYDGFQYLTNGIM

Chain of LIM domain kinase 1 (Homo sapiens) (P53667 whole entry, looked up, the tested form may be a part): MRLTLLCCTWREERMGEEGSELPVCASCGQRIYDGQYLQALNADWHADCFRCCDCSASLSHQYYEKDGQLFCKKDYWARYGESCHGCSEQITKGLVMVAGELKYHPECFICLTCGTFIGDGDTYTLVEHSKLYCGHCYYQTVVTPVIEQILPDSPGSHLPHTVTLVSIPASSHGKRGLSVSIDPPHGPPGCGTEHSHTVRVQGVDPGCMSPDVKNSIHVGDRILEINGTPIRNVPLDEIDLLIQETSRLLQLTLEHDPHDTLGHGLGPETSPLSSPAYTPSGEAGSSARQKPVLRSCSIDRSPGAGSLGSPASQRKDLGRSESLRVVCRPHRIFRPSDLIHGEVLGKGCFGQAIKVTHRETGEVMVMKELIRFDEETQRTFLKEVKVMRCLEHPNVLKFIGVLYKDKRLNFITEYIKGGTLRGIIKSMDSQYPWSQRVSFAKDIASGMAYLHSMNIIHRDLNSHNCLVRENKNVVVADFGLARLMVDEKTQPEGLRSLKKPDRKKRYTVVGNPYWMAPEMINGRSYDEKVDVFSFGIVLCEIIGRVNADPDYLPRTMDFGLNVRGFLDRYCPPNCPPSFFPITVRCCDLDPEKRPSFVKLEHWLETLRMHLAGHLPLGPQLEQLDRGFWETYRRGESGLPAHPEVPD
Chain of Interferon-induced, double-stranded RNA-activated protein kinase (Homo sapiens) (P19525 whole entry): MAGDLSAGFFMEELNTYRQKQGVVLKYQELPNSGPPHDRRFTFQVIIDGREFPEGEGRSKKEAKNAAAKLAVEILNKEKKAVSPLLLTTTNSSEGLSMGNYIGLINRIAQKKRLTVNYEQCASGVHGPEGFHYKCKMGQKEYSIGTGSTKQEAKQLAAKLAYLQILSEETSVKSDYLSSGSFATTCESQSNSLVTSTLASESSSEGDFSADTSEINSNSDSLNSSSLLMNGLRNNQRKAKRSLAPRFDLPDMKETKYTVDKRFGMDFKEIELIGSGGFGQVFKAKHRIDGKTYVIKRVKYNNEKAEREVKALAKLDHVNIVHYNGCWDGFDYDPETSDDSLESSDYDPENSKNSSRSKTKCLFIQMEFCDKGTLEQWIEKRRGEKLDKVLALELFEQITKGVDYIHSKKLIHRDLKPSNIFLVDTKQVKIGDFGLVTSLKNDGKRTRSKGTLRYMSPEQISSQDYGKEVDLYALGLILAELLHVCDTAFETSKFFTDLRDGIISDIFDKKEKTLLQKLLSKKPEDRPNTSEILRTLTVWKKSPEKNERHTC
Chain of Platelet-derived growth factor receptor alpha (P16234 whole entry): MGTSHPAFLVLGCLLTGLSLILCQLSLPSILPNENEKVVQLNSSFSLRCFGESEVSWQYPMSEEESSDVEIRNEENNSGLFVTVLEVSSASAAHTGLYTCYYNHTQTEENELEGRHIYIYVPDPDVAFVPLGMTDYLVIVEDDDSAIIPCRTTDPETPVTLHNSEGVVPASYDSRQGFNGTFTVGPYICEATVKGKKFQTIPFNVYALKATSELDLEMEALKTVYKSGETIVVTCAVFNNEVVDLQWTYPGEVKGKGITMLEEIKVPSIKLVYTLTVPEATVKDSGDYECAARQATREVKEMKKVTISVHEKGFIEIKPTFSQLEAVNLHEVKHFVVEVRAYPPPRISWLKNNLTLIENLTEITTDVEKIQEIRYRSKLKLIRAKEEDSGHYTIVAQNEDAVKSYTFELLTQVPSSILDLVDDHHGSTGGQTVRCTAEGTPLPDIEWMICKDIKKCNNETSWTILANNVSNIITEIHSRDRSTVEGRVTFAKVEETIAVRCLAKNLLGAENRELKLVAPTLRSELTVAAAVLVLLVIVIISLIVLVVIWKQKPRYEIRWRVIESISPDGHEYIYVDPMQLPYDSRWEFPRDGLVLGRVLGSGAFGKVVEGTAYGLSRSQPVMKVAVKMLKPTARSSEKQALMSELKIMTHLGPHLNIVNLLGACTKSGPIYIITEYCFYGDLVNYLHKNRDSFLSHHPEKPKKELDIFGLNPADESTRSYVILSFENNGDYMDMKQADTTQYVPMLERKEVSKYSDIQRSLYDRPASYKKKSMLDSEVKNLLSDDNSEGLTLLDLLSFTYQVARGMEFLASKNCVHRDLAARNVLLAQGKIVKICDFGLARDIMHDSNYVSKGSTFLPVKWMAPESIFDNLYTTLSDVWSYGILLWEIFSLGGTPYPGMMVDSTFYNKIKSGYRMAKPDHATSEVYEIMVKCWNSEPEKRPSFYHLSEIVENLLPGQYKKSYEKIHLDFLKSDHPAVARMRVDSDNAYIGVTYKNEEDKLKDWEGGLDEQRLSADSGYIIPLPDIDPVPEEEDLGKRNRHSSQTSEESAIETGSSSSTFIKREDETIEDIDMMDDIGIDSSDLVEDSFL
Chain of Cyclin-dependent kinase 5 (Q00535 whole entry, looked up): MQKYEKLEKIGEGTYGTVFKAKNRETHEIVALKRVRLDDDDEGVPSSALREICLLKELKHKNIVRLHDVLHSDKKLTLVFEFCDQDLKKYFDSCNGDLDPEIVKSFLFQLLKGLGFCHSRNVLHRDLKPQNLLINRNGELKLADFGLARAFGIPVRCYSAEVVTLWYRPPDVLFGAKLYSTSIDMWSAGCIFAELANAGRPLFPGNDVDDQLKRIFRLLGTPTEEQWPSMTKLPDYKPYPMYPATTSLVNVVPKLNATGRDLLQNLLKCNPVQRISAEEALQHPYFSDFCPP
Chain of Ribosomal protein S6 kinase alpha-2 (Homo sapiens) (Q15349 whole entry): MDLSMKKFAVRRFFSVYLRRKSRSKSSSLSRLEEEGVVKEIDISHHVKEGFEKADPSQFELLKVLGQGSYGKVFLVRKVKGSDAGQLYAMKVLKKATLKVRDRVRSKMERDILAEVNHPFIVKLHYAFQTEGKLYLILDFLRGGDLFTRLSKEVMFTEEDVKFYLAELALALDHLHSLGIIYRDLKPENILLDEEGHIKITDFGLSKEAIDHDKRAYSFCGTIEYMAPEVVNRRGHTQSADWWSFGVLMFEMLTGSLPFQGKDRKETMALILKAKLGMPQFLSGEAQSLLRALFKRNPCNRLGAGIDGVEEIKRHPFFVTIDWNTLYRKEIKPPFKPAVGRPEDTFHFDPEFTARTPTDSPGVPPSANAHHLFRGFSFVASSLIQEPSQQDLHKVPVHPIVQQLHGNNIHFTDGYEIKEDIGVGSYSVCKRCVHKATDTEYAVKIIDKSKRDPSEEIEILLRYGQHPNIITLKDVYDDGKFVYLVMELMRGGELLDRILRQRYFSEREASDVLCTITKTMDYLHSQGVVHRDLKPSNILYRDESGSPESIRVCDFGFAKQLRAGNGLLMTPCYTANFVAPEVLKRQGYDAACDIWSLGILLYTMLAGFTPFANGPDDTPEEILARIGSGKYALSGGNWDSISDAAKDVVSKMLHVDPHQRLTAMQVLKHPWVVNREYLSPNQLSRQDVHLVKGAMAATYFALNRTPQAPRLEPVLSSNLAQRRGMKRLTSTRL
Chain of Tyrosine-protein kinase Yes (Homo sapiens) (P07947 2-543 limits assumed): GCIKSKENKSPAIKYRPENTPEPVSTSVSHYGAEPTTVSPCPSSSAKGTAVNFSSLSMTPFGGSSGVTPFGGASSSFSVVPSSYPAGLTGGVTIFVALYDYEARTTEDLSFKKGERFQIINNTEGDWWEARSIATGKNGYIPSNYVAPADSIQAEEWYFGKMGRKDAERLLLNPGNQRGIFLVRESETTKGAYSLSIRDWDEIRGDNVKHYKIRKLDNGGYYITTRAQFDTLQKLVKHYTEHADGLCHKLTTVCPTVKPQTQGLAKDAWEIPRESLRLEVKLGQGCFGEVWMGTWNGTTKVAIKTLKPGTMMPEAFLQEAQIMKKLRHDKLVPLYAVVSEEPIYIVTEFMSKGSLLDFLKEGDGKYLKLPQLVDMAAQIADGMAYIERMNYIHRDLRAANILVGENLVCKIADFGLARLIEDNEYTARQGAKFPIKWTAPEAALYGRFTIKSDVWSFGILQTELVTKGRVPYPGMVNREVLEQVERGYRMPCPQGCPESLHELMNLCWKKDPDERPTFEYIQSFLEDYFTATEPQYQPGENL

Compound `CC[C@@H]1[C@H](F)C(=O)N[C@@H]1COc1nccc2cc(C(N)=O)c(OC)cc12` [ZIMLOVISERTIB] has a % of inhibition [1] of -11.5% and a % of inhibition [2] of -3.5%.

In the case of `Cc1cc(F)c(C(=O)Nc2cccc(-c3nncn3C(C)C)n2)cc1-n1cnc(C2CC2)c1`, the % of control [3] is reported as 73%.

Work on `CN(C(=O)c1cnn2cccnc12)c1cc2c(cc1N1CCOCC1)C(=O)N(C[C@@H](F)C(C)(C)O)C2` yielded a dTM [4] of -0.8 K.

With `C=CC(=O)Nc1cc(-n2c(=O)ccc3cnc4ccc(-c5ccc(NS(C)(=O)=O)cc5)cc4c32)ccc1C` the % of control ([5]; at 1 µM) was 100%, the % of control ([5]; at 10 µM) was 95% and the % of control ([6]; at 1 µM) was 100%. It also gave a % of control ([6]; at 10 µM) of 71%.

`Nc1cnc(N2CCc3cc(S(=O)(=O)Nc4c(F)cc(Cl)cc4F)cc(N4CCCC4=O)c32)nc1` [TP-020n] showed a % of control [7] of 100%, a % of control [8] of 83% and a % of control [9] of 41%.

Compound `COc1cc(N(C)c2ccnc3ccc(C(F)(F)F)cc23)cc(OC)c1OC` has a % binding [10] of 81%.

Work on `CCC(=O)N1CCN(c2ccc(-n3c(=O)ccc4cnc5ccc(-c6cnc7ccccc7c6)cc5c43)cc2C(F)(F)F)CC1` yielded a % of control [11] of 63% and a % of control [12] of 76%.

Compound `N#Cc1cccc(-c2c[nH]c3ncnc(N4CCOCC4)c23)c1` has a % of control [13] of 96%, a % of control [14] of 93% and a % of control [15] of 95%. The % of control [16] was 75% and the % of inhibition [17] was 5%.
